Measured values reported in PubChem BioAssay AID2060483 (Molecular Pharmacology Branch, DTP, NCI, 2025).

Test system: K24384-001-R-PDC complex spheroids, viability
Assay: Anticancer human tumor K24384-001-R-PDC patient-derived pancreatic adenocarcinoma cell line growth inhibition [GQUAD]
Settings: for IC50: curve of first compound; for viability, T/C: stronger effect = lower value
In short: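 Viability of tumor cells grown as complex spheroids with endothelial and stromal cells, exposed to drug combinations. Top concentration at or near clinical Cmax (else 10 microM), diluted in half-log increments.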

[1] = second compound 0.0316 µM, first compound 0.000999 µM
[2] = second compound 0.0316 µM, first compound 0.00316 µM
[3] = second compound 0.0316 µM, first compound 0.00999 µM
[4] = second compound 0.0316 µM, first compound 0.0316 µM
[5] = second compound 0.0316 µM, first compound 0.0999 µM
[6] = second compound 0.0316 µM, first compound 0.316 µM
[7] = second compound 0.1 µM, first compound 0.000999 µM
[8] = second compound 0.1 µM, first compound 0.00316 µM
[9] = second compound 0.1 µM, first compound 0.00999 µM
[10] = second compound 0.1 µM, first compound 0.0316 µM
[11] = second compound 0.1 µM, first compound 0.0999 µM
[12] = second compound 0.1 µM, first compound 0.316 µM
[13] = second compound 0.316 µM, first compound 0.000999 µM
[14] = second compound 0.316 µM, first compound 0.00316 µM
[15] = second compound 0.316 µM, first compound 0.00999 µM
[16] = second compound 0.316 µM, first compound 0.0316 µM
[17] = second compound 0.316 µM, first compound 0.0999 µM
[18] = second compound 0.316 µM, first compound 0.316 µM
[19] = second compound 1 µM, first compound 0.000999 µM
[20] = second compound 1 µM, first compound 0.00316 µM
[21] = second compound 1 µM, first compound 0.00999 µM
[22] = second compound 1 µM, first compound 0.0316 µM
[23] = second compound 1 µM, first compound 0.0999 µM
[24] = second compound 1 µM, first compound 0.316 µM
[25] = second compound 3.16 µM, first compound 0.000999 µM
[26] = second compound 3.16 µM, first compound 0.00316 µM
[27] = second compound 3.16 µM, first compound 0.00999 µM
[28] = second compound 3.16 µM, first compound 0.0316 µM
[29] = second compound 3.16 µM, first compound 0.0999 µM
[30] = second compound 3.16 µM, first compound 0.316 µM
[31] = second compound 10 µM, first compound 0.000999 µM
[32] = second compound 10 µM, first compound 0.00316 µM
[33] = second compound 10 µM, first compound 0.00999 µM
[34] = second compound 10 µM, first compound 0.0316 µM
[35] = second compound 10 µM, first compound 0.0999 µM
[36] = second compound 10 µM, first compound 0.316 µM
[37] = second compound 0.0316 µM, first compound 0.1 µM
[38] = second compound 0.0316 µM, first compound 1 µM
[39] = second compound 0.0316 µM, first compound 3.16 µM
[40] = second compound 0.0316 µM, first compound 10 µM
[41] = second compound 0.1 µM, first compound 0.1 µM
[42] = second compound 0.1 µM, first compound 1 µM
[43] = second compound 0.1 µM, first compound 3.16 µM
[44] = second compound 0.1 µM, first compound 10 µM
[45] = second compound 0.316 µM, first compound 0.1 µM
[46] = second compound 0.316 µM, first compound 1 µM
[47] = second compound 0.316 µM, first compound 3.16 µM
[48] = second compound 0.316 µM, first compound 10 µM
[49] = second compound 1 µM, first compound 0.1 µM
[50] = second compound 1 µM, first compound 1 µM
[51] = second compound 1 µM, first compound 3.16 µM
[52] = second compound 1 µM, first compound 10 µM
[53] = second compound 3.16 µM, first compound 0.1 µM
[54] = second compound 3.16 µM, first compound 1 µM
[55] = second compound 3.16 µM, first compound 3.16 µM
[56] = second compound 3.16 µM, first compound 10 µM
[57] = second compound 10 µM, first compound 0.1 µM
[58] = second compound 10 µM, first compound 1 µM
[59] = second compound 10 µM, first compound 3.16 µM
[60] = second compound 10 µM, first compound 10 µM
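Further: spheroids exposed to compounds for seven days.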

In the case of `CCc1c2c(nc3ccc(O)cc13)-c1cc3c(c(=O)n1C2)COC(=O)[C@]3(O)CC` + Cc1[nH]c2ccc(F)cc2c1-c1nc2c3cccnc3c3ncccc3c2[nH]1, the IC50 (second compound 0.0316 µM) is reported as 9.41 nM, the IC50 (second compound 0.1 µM) is reported as 11.4 nM and the IC50 (second compound 0.316 µM) is reported as 9.43 nM. For the same compound, the IC50 (second compound 1 µM) was 11.7 nM, the IC50 (second compound 3.16 µM) was 6.05 nM and the IC50 (second compound 10 µM) was 4.02 nM. It also gave a viability, T/C [1] of 96.3%, a viability, T/C [2] of 62.2% and a viability, T/C [3] of 53.5%. It also gave a viability, T/C [4] of 38.9%, a viability, T/C [5] of 29.3% and a viability, T/C [6] of 27.2%. It also gave a viability, T/C [7] of 79.8%, a viability, T/C [8] of 72.7% and a viability, T/C [9] of 51.5%. For the same compound, the viability, T/C [10] was 33.1%, the viability, T/C [11] was 31.3% and the viability, T/C [12] was 21.4%. It also gave a viability, T/C [13] of 72%, a viability, T/C [14] of 61.3% and a viability, T/C [15] of 47.5%. For the same compound, the viability, T/C [16] was 41.8%, the viability, T/C [17] was 28.3% and the viability, T/C [18] was 23.7%. For the same compound, the viability, T/C [19] was 70.6%, the viability, T/C [20] was 57.1% and the viability, T/C [21] was 51.5%. The viability, T/C [22] was 42.2%, the viability, T/C [23] was 39.9% and the viability, T/C [24] was 26.8%. For the same compound, the viability, T/C [25] was 65%, the viability, T/C [26] was 55.5% and the viability, T/C [27] was 41.3%. It also gave a viability, T/C [28] of 38.1%, a viability, T/C [29] of 30.8% and a viability, T/C [30] of 13.7%. For the same compound, the viability, T/C [31] was 60.4%, the viability, T/C [32] was 48.9% and the viability, T/C [33] was 43.8%. It also gave a viability, T/C [34] of 28.4%, a viability, T/C [35] of 15.1% and a viability, T/C [36] of 11%.
`COc1ccc([C@@H](O)c2cc(-c3ncnc4cc(N5CCOCC5)ccc34)c(F)cc2Cl)nn1` + Cc1[nH]c2ccc(F)cc2c1-c1nc2c3cccnc3c3ncccc3c2[nH]1 showed an IC50 (second compound 0.0316 µM) of 2990 nM, an IC50 (second compound 0.1 µM) of 2480 nM and an IC50 (second compound 0.316 µM) of 4280 nM. For the same compound, the IC50 (second compound 1 µM) was 3380 nM, the IC50 (second compound 3.16 µM) was 2100 nM and the IC50 (second compound 10 µM) was 1690 nM. The viability, T/C [4] was 100%, the viability, T/C [37] was 89.6% and the viability, T/C [6] was 68.3%. For the same compound, the viability, T/C [38] was 64.6%, the viability, T/C [39] was 49.1% and the viability, T/C [40] was 38.6%. The viability, T/C [10] was 79.7%, the viability, T/C [41] was 95.4% and the viability, T/C [12] was 92.7%. It also gave a viability, T/C [42] of 73%, a viability, T/C [43] of 44.5% and a viability, T/C [44] of 31.9%. The viability, T/C [16] was 101%, the viability, T/C [45] was 115% and the viability, T/C [18] was 99.4%. The viability, T/C [46] was 66.8%, the viability, T/C [47] was 65.1% and the viability, T/C [48] was 28.4%. It also gave a viability, T/C [22] of 81.7%, a viability, T/C [49] of 99.5% and a viability, T/C [24] of 83.9%. For the same compound, the viability, T/C [50] was 67.1%, the viability, T/C [51] was 54.1% and the viability, T/C [52] was 30.3%. For the same compound, the viability, T/C [28] was 87.9%, the viability, T/C [53] was 76.8% and the viability, T/C [30] was 58%. It also gave a viability, T/C [54] of 73.5%, a viability, T/C [55] of 41.7% and a viability, T/C [56] of 19.3%. For the same compound, the viability, T/C [34] was 48.7%, the viability, T/C [57] was 85.9% and the viability, T/C [36] was 58.9%. The viability, T/C [58] was 66.3%, the viability, T/C [59] was 32.3% and the viability, T/C [60] was 15.8%.
In the case of `Cc1cccc(N(C)C(=O)C2C(O)CCN2c2nc(C)cc(C(F)(F)F)c2C#N)c1` (stereo not drawn) + Cc1[nH]c2ccc(F)cc2c1-c1nc2c3cccnc3c3ncccc3c2[nH]1, the IC50 (second compound 0.0316 µM) is reported as greater than 10000 nM, the IC50 (second compound 0.1 µM) is reported as greater than 10000 nM and the IC50 (second compound 0.316 µM) is reported as greater than 10000 nM. For the same compound, the IC50 (second compound 1 µM) was greater than 10000 nM, the IC50 (second compound 3.16 µM) was greater than 10000 nM and the IC50 (second compound 10 µM) was greater than 10000 nM. It also gave a viability, T/C [4] of 98.2%, a viability, T/C [37] of 90.9% and a viability, T/C [6] of 105%. For the same compound, the viability, T/C [38] was 95.2%, the viability, T/C [39] was 116% and the viability, T/C [40] was 117%. The viability, T/C [10] was 95.3%, the viability, T/C [41] was 102% and the viability, T/C [12] was 103%. The viability, T/C [42] was 100%, the viability, T/C [43] was 131% and the viability, T/C [44] was 118%. For the same compound, the viability, T/C [16] was 81.5%, the viability, T/C [45] was 103% and the viability, T/C [18] was 107%. The viability, T/C [46] was 104%, the viability, T/C [47] was 105% and the viability, T/C [48] was 128%. It also gave a viability, T/C [22] of 85.4%, a viability, T/C [49] of 91.2% and a viability, T/C [24] of 87.9%. It also gave a viability, T/C [50] of 99%, a viability, T/C [51] of 114% and a viability, T/C [52] of 93.4%. The viability, T/C [28] was 83.1%, the viability, T/C [53] was 75% and the viability, T/C [30] was 77.4%. It also gave a viability, T/C [54] of 85%, a viability, T/C [55] of 83.7% and a viability, T/C [56] of 71.8%. For the same compound, the viability, T/C [34] was 74.4%, the viability, T/C [57] was 85.5% and the viability, T/C [36] was 74.4%. It also gave a viability, T/C [58] of 85.6%, a viability, T/C [59] of 67.9% and a viability, T/C [60] of 75.5%.
With `Cn1ncnc1[C@H]1c2n[nH]c(=O)c3cc(F)cc(c23)N[C@@H]1c1ccc(F)cc1` + Cc1[nH]c2ccc(F)cc2c1-c1nc2c3cccnc3c3ncccc3c2[nH]1 the IC50 (second compound 0.0316 µM) was greater than 316 nM, the IC50 (second compound 0.1 µM) was greater than 316 nM and the IC50 (second compound 0.316 µM) was greater than 316 nM. It also gave an IC50 (second compound 1 µM) greater than 316 nM, an IC50 (second compound 3.16 µM) greater than 316 nM and an IC50 (second compound 10 µM) greater than 316 nM. It also gave a viability, T/C [1] of 97.8%, a viability, T/C [2] of 94.4% and a viability, T/C [3] of 99.6%. It also gave a viability, T/C [4] of 92%, a viability, T/C [5] of 102% and a viability, T/C [6] of 90.4%. It also gave a viability, T/C [7] of 87.9%, a viability, T/C [8] of 98.5% and a viability, T/C [9] of 90.3%. The viability, T/C [10] was 91%, the viability, T/C [11] was 97.1% and the viability, T/C [12] was 93.2%. It also gave a viability, T/C [13] of 86.7%, a viability, T/C [14] of 103% and a viability, T/C [15] of 93%. For the same compound, the viability, T/C [16] was 89.5%, the viability, T/C [17] was 93% and the viability, T/C [18] was 77.9%. It also gave a viability, T/C [19] of 95.3%, a viability, T/C [20] of 100% and a viability, T/C [21] of 95.3%. For the same compound, the viability, T/C [22] was 81.8%, the viability, T/C [23] was 85.9% and the viability, T/C [24] was 80.8%. For the same compound, the viability, T/C [25] was 74%, the viability, T/C [26] was 92.9% and the viability, T/C [27] was 72.3%. For the same compound, the viability, T/C [28] was 73.5%, the viability, T/C [29] was 72.4% and the viability, T/C [30] was 67.3%. The viability, T/C [31] was 64.3%, the viability, T/C [32] was 79% and the viability, T/C [33] was 57.2%. It also gave a viability, T/C [34] of 76.1%, a viability, T/C [35] of 71.2% and a viability, T/C [36] of 60.4%.
